Three compounds from patent US9321745B2, “Inhibition of neovascularization by inhibition of prostanoid IP receptors” (ALLERGAN, INC., priority 2013, dated 2016) can be followed below.

Assay [1] concerns the target T1, IP receptor (Homo sapiens, UniProt P43119).
T1 construct: endogenous in cells; host or cells: TNFα-stimulated human macrophages from individual donors
Description: Cicaprost-induced VEGF secretion in TNFα-stimulated human macrophages. It counts as cell-based. Conditions: FIG. 1A. From the text:
(§1) A TNFα-stimulated human macrophage system was employed, as known in the art, to assess the effect of IP receptor agonist and IP receptor antagonist on induction of VEGF secretion.

Assay [2] concerns the target T1, IP receptor. The experiment in a line: Inhibition of 100 nM cicaprost-induced VEGF secretion in TNFα-stimulated human macrophages. Type of assay: cell-based. As to conditions: TNFα-stimulated human macrophages from two individual donors, FIG. 1B.
Text: as §1
In order to test whether a IP receptor antagonist can reverse the effect of cicaprost-induced VEGF secretion in TNFα-stimulated human macrophages, the IP receptor antagonist Formula I was employed.

Assay [3] deals with laser-induced choroidal neovascularization (CNV). The experiment in a line: Laser-induced model of choroidal neovascularization (CNV). Type of assay: in vivo. As to the method: A laser-induced model of CNV was employed, as known in the art, to determine whether blockade of IP receptors alone is sufficient to inhibit CNV. See e.g., Francois et al., 1975, Am. J. Ophthalmol. 79:206-210; Edelman & Castro, 2000, Exp. Eye Res. 71:523-533; Goody, R. J., et al., 2011, Exp. Eye. Research 92:464-472. Test rats were administered laser treatment after which vehicle (50% propylene glycol in H2O) or IP receptor antagonist Formula II was administered. The area of subsequently identified CNV was quantified by methods known in the art. […] Moreover, as depicted in FIG. 2C, the area of CNV was reduced on a per lesion basis.

Molecules are shown by their SMILES.

T1 sequence (P43119 whole entry): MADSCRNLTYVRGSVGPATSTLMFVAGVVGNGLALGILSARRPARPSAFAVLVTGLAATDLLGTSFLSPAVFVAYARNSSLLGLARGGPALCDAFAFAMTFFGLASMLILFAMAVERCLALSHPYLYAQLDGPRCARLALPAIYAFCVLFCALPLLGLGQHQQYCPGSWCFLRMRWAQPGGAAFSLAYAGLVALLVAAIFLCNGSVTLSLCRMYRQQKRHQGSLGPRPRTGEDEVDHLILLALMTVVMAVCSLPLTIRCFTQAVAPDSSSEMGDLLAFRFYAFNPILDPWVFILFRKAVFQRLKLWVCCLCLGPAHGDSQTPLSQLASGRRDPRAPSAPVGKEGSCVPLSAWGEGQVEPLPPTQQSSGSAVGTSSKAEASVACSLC

For `CCC#CC[C@H](C)[C@H](O)C#C[C@@H]1[C@H]2C/C(=C/COCC(=O)O)C[C@H]2C[C@H]1O` [cicaprost], the “induction of VEGF secretion” value at IP receptor [1] is “dose dependently induces VEGF secretion”.

For `CC(C)Oc1ccc(Cc2ccc(NC3=NCCN3)cc2)cc1` [Formula I], the “inhibition of cicaprost-induced VEGF secretion” value on IP receptor [2] is “dose dependently inhibits”.

`O=C(N[C@@H](Cc1ccc(F)cc1)C(=O)O)OCc1cc2cc(-c3cccc(F)c3)ccc2o1` [Formula II]: the “area of CNV per test subject (rat vs. rat)” value in assay [3] (after laser treatment, vs vehicle 50% propylene glycol in H2O, n=6, FIG. 2A) was “significantly reduced”. Further, the “area of CNV, comparison of each eye (eye vs. eye)” value in assay [3] (rat, after laser treatment, vs vehicle, n=12, FIG. 2B) is listed as “reduced”. Further, the “area of CNV on a per lesion basis (lesion vs. lesion)” value in assay [3] (rat, after laser treatment, vs vehicle, n=38, FIG. 2C) was “reduced”. Moreover, the “inhibition of laser-induced choroidal neovascularization (CNV)” value in assay [3] (rat, FIG. 2 overall, vs vehicle 50% propylene glycol in H20) is listed as “sufficient to inhibit laser-induced choroidal neovascularization”.
